Our source for the pest or weed control values is US20230077362A1 (CORTEVA AGRISCIENCE LLC, priority 2019, published 2023).

The test system of assay [1] is Cabbage Looper (Trichoplusia ni) ("CL"), second instar larvae. The assay is described as follows: Bioassay on cabbage looper (CL), 128-well diet tray assay. In kind it is in vivo. The note with it: Trichoplusia ni, read-out: CL (Biological Results, rating). The gist of the method: (§1)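 Second-instar larvae on diet in 128-well trays, covered and held at 25° C, 14:10 light-dark, for five to seven days. Percent mortality scored per well and averaged over eight wells; activity reported as a rating category.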

The subject of assay [2] is Beet Armyworm (Spodoptera exigua) ("BAW"), second instar larvae. The assay is described as follows: Bioassay on beet armyworm (BAW), 128-well diet tray assay. In kind it is in vivo. The note with it: Spodoptera exigua, read-out: BAW (Biological Results, rating). A digest of the protocol:
as §1

Regarding `COCc1ccc(C)cc1N1C(=O)CS/C1=N\C(=O)Nc1ccc(-c2ncn(-c3ccc(C(F)(F)F)cn3)n2)cc1F` [Compound J298, (Z)-1-(2-Fluoro-4-(1-(5-(trifluoromethyl)pyridin-2-yl)-1H-1,2,4-triazol-3-yl)phenyl)-3-(3-(2-(methoxymethyl)-5-methylphenyl)-4-oxothiazolidin-2-ylidene)urea], the pest or weed control at 50 µg/cm2 in assay [1] and in assay [2] was 50 to 100% throughout.

For the molecule `CCOCc1ccc(C)cc1N1C(=O)CS/C1=N\C(=O)Nc1ccc(-c2ncn(-c3ccc(C(F)(F)F)cn3)n2)cc1F` [Compound J299, (Z)-1-(3-(2-(Ethoxymethyl)-5-methylphenyl)-4-oxothiazolidin-2-ylidene)-3-(2-fluoro-4-(1-(5-(trifluoromethyl)pyridin-2-yl)-1H-1,2,4-triazol-3-yl)phenyl)urea], the pest or weed control at 50 µg/cm2 in assay [1] and in assay [2] was 50 to 100% in each case.

Regarding `COC(C)c1cc(C)ccc1N1C(=O)CS/C1=N\C(=O)Nc1ccc(-c2ncn(-c3ccc(C(F)(F)F)cn3)n2)cc1F` (stereo not shown) [Compound J300, (Z)-1-(2-Fluoro-4-(1-(5-(trifluoromethyl)pyridin-2-yl)-1H-1,2,4-triazol-3-yl)phenyl)-3-(3-(2-(1-methoxyethyl)-4-methylphenyl)-4-oxothiazolidin-2-ylidene)urea], the pest or weed control at 50 µg/cm2 in assay [1] and in assay [2] was 50 to 100% each time.

Turning to `Cc1ccc(C(C)C)c(N2C(=O)CS/C2=N\C(=O)Nc2ccc(-c3ncn(-c4ccc(C(F)(F)F)cn4)n3)cc2C(F)(F)F)c1` [Compound J301, (Z)-1-(3-(2-Isopropyl-5-methylphenyl)-4-oxothiazolidin-2-ylidene)-3-(2-(trifluoromethyl)-4-(1-(5-(trifluoromethyl)pyridin-2-yl)-1H-1,2,4-triazol-3-yl)phenyl)urea], the pest or weed control at 50 µg/cm2 in assay [1] and in assay [2] was 50 to 100% in each case.

On to `CC(C)c1ccc(N(C)C)cc1N1C(=O)CS/C1=N\C(=O)Nc1ccc(-c2ncn(-c3ccc(C(F)(F)F)cn3)n2)cc1C(F)(F)F` [Compound J302, (Z)-1-(3-(5-(Dimethylamino)-2-isopropylphenyl)-4-oxothiazolidin-2-ylidene)-3-(2-(trifluoromethyl)-4-(1-(5-(trifluoromethyl)pyridin-2-yl)-1H-1,2,4-triazol-3-yl)phenyl)urea], for which the pest or weed control at 50 µg/cm2 in assay [1] and in assay [2] was 50 to 100% throughout.

Consider `COC(C)c1ccc(C)cc1N1C(=O)CS/C1=N\C(=O)Nc1ccc(-c2ncn(-c3ccc(C(F)(F)F)cn3)n2)cc1C(F)(F)F` (stereo not shown) [Compound J303, (Z)-1-(3-(2-(1-Methoxyethyl)-5-methylphenyl)-4-oxothiazolidin-2-ylidene)-3-(2-(trifluoromethyl)-4-(1-(5-(trifluoromethyl)pyridin-2-yl)-1H-1,2,4-triazol-3-yl)phenyl)urea], for which the pest or weed control at 50 µg/cm2 in assay [1] and in assay [2] was 50 to 100% throughout.

Turning to `Cc1ccc(COCC(F)(F)F)c(N2C(=O)CS/C2=N\C(=O)Nc2ccc(-c3ncn(-c4ccc(C(F)(F)F)cn4)n3)cc2C(F)(F)F)c1` [Compound J304, (Z)-1-(3-(5-Methyl-2-((2,2,2-trifluoroethoxy)methyl)phenyl)-4-oxothiazolidin-2-ylidene)-3-(2-(trifluoromethyl)-4-(1-(5-(trifluoromethyl)pyridin-2-yl)-1H-1,2,4-triazol-3-yl)phenyl)urea], the pest or weed control at 50 µg/cm2 in assay [1] and in assay [2] was 50 to 100% in each case.

`Cc1ccc(OCCC(F)(F)F)c(N2C(=O)CS/C2=N\C(=O)Nc2ccc(-c3ncn(-c4ccc(C(F)(F)F)cn4)n3)cc2C(F)(F)F)c1` [Compound J305, (Z)-1-(3-(5-Methyl-2-(3,3,3-trifluoropropoxy)phenyl)-4-oxothiazolidin-2-ylidene)-3-(2-(trifluoromethyl)-4-(1-(5-(trifluoromethyl)pyridin-2-yl)-1H-1,2,4-triazol-3-yl)phenyl)urea]: the pest or weed control at 50 µg/cm2 in assay [1] and in assay [2] was 50 to 100% throughout.

In the case of `COC(C)c1ccc(C)cc1N1C(=O)CS/C1=N\C(=O)Nc1ccc(-c2ncn(-c3ccc(C(F)(F)F)cn3)n2)cc1Cl` (stereo not shown) [Compound J306, (Z)-1-(2-Chloro-4-(1-(5-(trifluoromethyl)pyridin-2-yl)-1H-1,2,4-triazol-3-yl)phenyl)-3-(3-(2-(1-methoxyethyl)-5-methylphenyl)-4-oxothiazolidin-2-ylidene)urea], the pest or weed control at 50 µg/cm2 in assay [1] and in assay [2] was 50 to 100% each time.

Regarding `Cc1ccc(OCCC(F)(F)F)c(N2C(=O)CS/C2=N\C(=O)Nc2ccc(-c3ncn(-c4ccc(C(F)(F)F)cn4)n3)cc2F)c1` [Compound J307, (Z)-1-(2-Fluoro-4-(1-(5-(trifluoromethyl)pyridin-2-yl)-1H-1,2,4-triazol-3-yl)phenyl)-3-(3-(5-methyl-2-(3,3,3-trifluoropropoxy)phenyl)-4-oxothiazolidin-2-ylidene)urea], the pest or weed control at 50 µg/cm2 in assay [1] and in assay [2] was 50 to 100% each time.

As for `Cc1ccc(COCC(F)(F)F)c(N2C(=O)CS/C2=N\C(=O)Nc2ccc(-c3ccn(-c4ccc(C(F)(F)F)cn4)n3)cc2F)c1` [Compound J308, (Z)-1-(2-Fluoro-4-(1-(5-(trifluoromethyl)pyridin-2-yl)-1H-pyrazol-3-yl)phenyl)-3-(3-(5-methyl-2-((2,2,2-trifluoroethoxy)methyl)phenyl)-4-oxothiazolidin-2-ylidene)urea], the pest or weed control at 50 µg/cm2 in assay [1] and in assay [2] was 50 to 100% in each case.

On to `COC(C)c1ccc(C)cc1N1C(=O)CS/C1=N\C(=O)Nc1ccc(-c2ccn(-c3ccc(C(F)(F)F)cn3)n2)cc1F` (stereo not shown) [Compound J309, (Z)-1-(2-Fluoro-4-(1-(5-(trifluoromethyl)pyridin-2-yl)-1H-pyrazol-3-yl)phenyl)-3-(3-(2-(1-methoxyethyl)-5-methylphenyl)-4-oxothiazolidin-2-ylidene)urea], for which the pest or weed control at 50 µg/cm2 in assay [1] and in assay [2] was 50 to 100% throughout.

Regarding `Cc1ccc(COCC(F)(F)F)c(N2C(=O)CS/C2=N\C(=O)Nc2ccc(-c3ccn(-c4ccc(C(F)(F)F)cn4)n3)cc2C)c1` [Compound J310, (Z)-1-(3-(5-Methyl-2-((2,2,2-trifluoroethoxy)methyl)phenyl)-4-oxothiazolidin-2-ylidene)-3-(2-methyl-4-(1-(5-(trifluoromethyl)pyridin-2-yl)-1H-pyrazol-3-yl)phenyl)urea], the pest or weed control at 50 µg/cm2 in assay [1] and in assay [2] was 50 to 100% throughout.

In the case of `COC(C)c1ccc(C)cc1N1C(=O)CS/C1=N\C(=O)Nc1ccc(-c2ccn(-c3ccc(C(F)(F)F)cn3)n2)cc1C` (stereo not shown) [Compound J311, (Z)-1-(3-(2-(1-Methoxyethyl)-5-methylphenyl)-4-oxothiazolidin-2-ylidene)-3-(2-methyl-4-(1-(5-(trifluoromethyl)pyridin-2-yl)-1H-pyrazol-3-yl)phenyl)urea], the pest or weed control at 50 µg/cm2 in assay [1] and in assay [2] was 50 to 100% each time.

For `Cc1ccc(OCCC(F)(F)F)c(N2C(=O)C(Cl)S/C2=N\C(=O)Nc2ccc(-c3ncn(-c4ccc(C(F)(F)F)cc4)n3)cc2)c1` (stereo not shown) [Compound J317, (Z)-1-(5-Chloro-3-(5-methyl-2-(3,3,3-trifluoropropoxy)phenyl)-4-oxothiazolidin-2-ylidene)-3-(4-(1-(4-(trifluoromethyl)phenyl)-1H-1,2,4-triazol-3-yl)phenyl)urea], the pest or weed control at 50 µg/cm2 in assay [1] and in assay [2] was 50 to 100% in each case.

`COc1ccc(OCCC(F)(F)F)c(N2C(=O)CS/C2=N\C(=O)Nc2ccc(-c3ncn(-c4ccc(OC(F)(F)F)cc4)n3)cc2)c1` [Compound J320, (Z)-1-(3-(5-Methoxy-2-(3,3,3-trifluoropropoxy)phenyl)-4-oxothiazolidin-2-ylidene)-3-(4-(1-(4-(trifluoromethoxy)phenyl)-1H-1,2,4-triazol-3-yl)phenyl)urea]: the pest or weed control at 50 µg/cm2 in assay [1] and in assay [2] was 50 to 100% throughout.

As for `CN(C)c1ccc(OCCC(F)(F)F)c(N2C(=O)CS/C2=N\C(=O)Nc2ccc(-c3ncn(-c4ccc(OC(F)(F)F)cc4)n3)cc2)c1` [Compound J321, (Z)-1-(3-(5-(Dimethylamino)-2-(3,3,3-trifluoropropoxy)phenyl)-4-oxothiazolidin-2-ylidene)-3-(4-(1-(4-(trifluoromethoxy)phenyl)-1H-1,2,4-triazol-3-yl)phenyl)urea], the pest or weed control at 50 µg/cm2 in assay [1] and in assay [2] was 50 to 100% in each case.

Turning to `Cc1ccc(N(C)C)c(N2C(=O)CS/C2=N\C(=O)Nc2ccc(-c3ncn(-c4ccc(OC(F)(F)F)cc4)n3)cc2)c1` [Compound J322, (Z)-1-(3-(2-(dimethylamino)-5-methylphenyl)-4-oxothiazolidin-2-ylidene)-3-(4-(1-(4-(trifluoromethoxy)phenyl)-1H-1,2,4-triazol-3-yl)phenyl)urea], the pest or weed control at 50 µg/cm2 in assay [1] and in assay [2] was 50 to 100% throughout.

For the molecule `Cc1ccc(C(C)C)c(N2C(=O)CS/C2=N\C(=O)Nc2ccc(-c3ncn(-c4cccc(C(F)(F)F)c4)n3)cc2)c1` [Compound J323, (Z)-1-(3-(2-isopropyl-5-methylphenyl)-4-oxothiazolidin-2-ylidene)-3-(4-(1-(3-(trifluoromethyl)phenyl)-1H-1,2,4-triazol-3-yl)phenyl)urea], the pest or weed control at 50 µg/cm2 in assay [1] and in assay [2] was 50 to 100% in each case.

For the molecule `CC(C)c1ccc(N(C)C)cc1N1C(=O)CS/C1=N\C(=O)Nc1ccc(-c2ncn(-c3cccc(OC(F)(F)F)c3)n2)cc1` [Compound J329, (Z)-1-(3-(5-(Dimethylamino)-2-isopropylphenyl)-4-oxothiazolidin-2-ylidene)-3-(4-(1-(3-(trifluoromethoxy)phenyl)-1H-1,2,4-triazol-3-yl)phenyl)urea], the pest or weed control at 50 µg/cm2 in assay [1] and in assay [2] was 50 to 100% each time.
